The record followed here is ChEMBL document CHEMBL5715954, “Silencing c-Myc translation as a therapeutic strategy through targeting PI3Kδ and CK1ε in hematological malignancies” (Blood, 2017).

Set-up in all cases: scale not given: the % may be the effect or the level left
Assay [1] addresses T1, Tyrosine-protein kinase Mer (Homo sapiens) (UniProt Q12866).
T1 sequence (whole entry): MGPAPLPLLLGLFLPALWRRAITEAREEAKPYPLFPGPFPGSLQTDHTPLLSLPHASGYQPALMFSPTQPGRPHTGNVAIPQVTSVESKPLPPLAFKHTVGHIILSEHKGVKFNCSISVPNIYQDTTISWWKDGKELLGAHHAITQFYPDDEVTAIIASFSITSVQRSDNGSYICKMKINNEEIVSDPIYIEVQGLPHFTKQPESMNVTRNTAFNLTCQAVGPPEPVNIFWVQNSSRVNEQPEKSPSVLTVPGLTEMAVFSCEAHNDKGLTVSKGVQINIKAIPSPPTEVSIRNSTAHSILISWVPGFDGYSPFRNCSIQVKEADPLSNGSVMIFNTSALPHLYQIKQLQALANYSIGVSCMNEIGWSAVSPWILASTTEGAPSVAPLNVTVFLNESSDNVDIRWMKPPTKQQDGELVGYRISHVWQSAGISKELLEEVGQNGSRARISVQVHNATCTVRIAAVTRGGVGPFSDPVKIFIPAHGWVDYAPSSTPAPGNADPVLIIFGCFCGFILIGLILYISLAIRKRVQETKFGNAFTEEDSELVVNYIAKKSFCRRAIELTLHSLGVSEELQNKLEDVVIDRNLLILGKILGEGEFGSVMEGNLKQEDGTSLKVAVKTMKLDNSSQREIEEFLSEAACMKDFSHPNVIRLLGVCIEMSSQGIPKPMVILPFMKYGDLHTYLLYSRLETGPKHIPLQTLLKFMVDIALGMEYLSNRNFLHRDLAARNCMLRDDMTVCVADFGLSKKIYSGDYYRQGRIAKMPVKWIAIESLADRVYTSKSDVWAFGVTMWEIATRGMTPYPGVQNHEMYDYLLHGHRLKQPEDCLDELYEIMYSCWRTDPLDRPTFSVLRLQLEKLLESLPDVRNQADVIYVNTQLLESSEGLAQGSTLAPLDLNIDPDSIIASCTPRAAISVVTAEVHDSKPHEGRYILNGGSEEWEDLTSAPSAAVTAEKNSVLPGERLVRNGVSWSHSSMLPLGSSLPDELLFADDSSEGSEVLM
In words: Inhibition of human c-MER assessed as enzyme activity at 1 uM using poly[Glu:Tyr] (4:1) as substrate preincubated for 20 mins followed by [gamma-33P]-ATP addition and measured after 120 mins by radiometric Hot-SpotSM Kinase assay relative to control.

Assay [2] has as its target T2, Protein kinase C iota type (Homo sapiens) (UniProt P41743).
T2 sequence (whole entry): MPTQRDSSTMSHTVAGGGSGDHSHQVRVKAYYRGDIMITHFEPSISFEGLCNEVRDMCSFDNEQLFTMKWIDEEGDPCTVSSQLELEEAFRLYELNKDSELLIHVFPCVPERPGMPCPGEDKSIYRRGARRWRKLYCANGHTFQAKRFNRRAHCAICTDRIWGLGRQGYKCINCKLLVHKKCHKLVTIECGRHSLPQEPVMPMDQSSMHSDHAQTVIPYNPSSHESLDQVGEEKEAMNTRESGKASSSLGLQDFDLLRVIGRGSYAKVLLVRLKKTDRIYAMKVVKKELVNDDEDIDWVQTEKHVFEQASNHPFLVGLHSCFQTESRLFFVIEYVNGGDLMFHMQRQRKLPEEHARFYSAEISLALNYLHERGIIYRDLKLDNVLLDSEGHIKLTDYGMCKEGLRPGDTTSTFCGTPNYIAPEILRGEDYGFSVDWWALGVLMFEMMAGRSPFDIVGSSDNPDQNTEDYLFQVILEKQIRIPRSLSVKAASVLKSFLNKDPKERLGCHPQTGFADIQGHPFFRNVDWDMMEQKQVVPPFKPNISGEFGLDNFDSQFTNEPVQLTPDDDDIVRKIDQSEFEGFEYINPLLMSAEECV
In words: Inhibition of human PKCiota assessed as enzyme activity at 1 uM using ERMRPRKRQGSVRRRV as substrate preincubated for 20 mins followed by [gamma-33P]-ATP addition and measured after 120 mins by radiometric Hot-SpotSM Kinase assay relative to control.

The target of assay [3] is T3, Tyrosine-protein kinase ZAP-70 (Homo sapiens) (UniProt P43403).
T3 sequence (whole entry): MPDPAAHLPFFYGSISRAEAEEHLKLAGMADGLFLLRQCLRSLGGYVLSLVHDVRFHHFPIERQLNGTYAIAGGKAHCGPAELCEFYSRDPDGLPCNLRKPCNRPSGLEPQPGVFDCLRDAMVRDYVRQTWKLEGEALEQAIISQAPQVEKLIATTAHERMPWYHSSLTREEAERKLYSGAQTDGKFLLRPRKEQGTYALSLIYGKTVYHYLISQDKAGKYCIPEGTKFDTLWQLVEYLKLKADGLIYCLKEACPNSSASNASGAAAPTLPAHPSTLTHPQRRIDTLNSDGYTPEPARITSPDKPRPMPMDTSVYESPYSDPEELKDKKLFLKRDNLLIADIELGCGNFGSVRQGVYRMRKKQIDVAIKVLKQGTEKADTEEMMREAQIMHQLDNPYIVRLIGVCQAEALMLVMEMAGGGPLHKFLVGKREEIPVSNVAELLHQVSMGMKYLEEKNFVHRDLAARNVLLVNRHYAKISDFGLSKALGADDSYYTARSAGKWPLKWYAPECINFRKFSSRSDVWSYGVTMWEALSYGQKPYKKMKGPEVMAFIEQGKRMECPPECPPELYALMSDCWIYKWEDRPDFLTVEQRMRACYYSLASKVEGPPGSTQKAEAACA
In words: Inhibition of human ZAP70 assessed as enzyme activity at 1 uM using poly[Glu:Tyr] (4:1) as substrate preincubated for 20 mins followed by [gamma-33P]-ATP addition and measured after 120 mins by radiometric Hot-SpotSM Kinase assay relative to control.

As to `C[C@H](Nc1ncnc2nc[nH]c12)c1cc2cccc(Cl)c2c(=O)n1-c1ccccc1`, the Activity stood at 103% in assay [1], 98.2% in assay [2] and 99.7% in assay [3].

Take `CC[C@H](Nc1ncnc2[nH]cnc12)c1nc2cccc(F)c2c(=O)n1-c1ccccc1`: the Activity in assay [1] was found to be 104%; in assay [2], 94%; in assay [3] it was 100%.

`CC(C)Oc1ccc(-c2nn([C@@H](C)c3oc4ccc(F)cc4c(=O)c3-c3cccc(F)c3)c3ncnc(N)c23)cc1F` [UMBRALISIB]: the Activity in assay [1] amounted to 102%; in assay [2], 95.7%; in assay [3] it was 99.4%.
